Measurements reported in US8207172B2 (Bayer Intellectual Property GmbH, priority 2004, dated 2012).
pIC50: −log10 of the molar value. Counter-ions that a name gives are not always drawn.

How the values were obtained:
[1] = test system: A431 cells (human epidermoid carcinoma); test: In vitro tumor cell proliferation assay (Cell Titer-Glo luminescent cell viability), A431; format: cell-based; settings: A-431, 72 h, 72 hours of drug exposure, ATP luminescence readout, read-out: IC50, anti-proliferative activity (inhibition of cell proliferation)
In short: (§1)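 Proliferation inhibition was measured as ATP-dependent luciferase signal after cells in RPMI with 10% FBS received test compound for 72 h at 37° C. Final concentrations spanned […] to 64 pM in 0.1% DMSO; IC50 values were derived.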

[2] = test system: BT474 (human breast carcinoma); test: In vitro tumor cell proliferation assay (Cell Titer-Glo luminescent cell viability), BT474; format: cell-based; settings: BT-474, 72 h, BT474 cells, 72 hours of drug exposure, ATP luminescence readout, read-out: IC50, anti-proliferative activity (inhibition of cell proliferation)
In short: as §1

SMILES | pIC50 [1] | pIC50 [2]
COCCN(CCOC)CCn1cc2c(n1)CCc1c-2sc2ncnc(Nc3ccc4c(cnn4Cc4cccc(F)c4)c3)c12 [Example 285, 2-{2-[bis(2-methoxyethyl)amino]ethyl}-N-[1-(3-fluorobenzyl)-1H-indazol-5-yl]-4,5-dihydro-2H-pyrimido[5′,4′:4,5]thieno[2,3-e]indazol-6-amine] | ≥ 5.30 | ≥ 6.00
CC(C)N1CCC(Cn2cc3c(n2)CCc2c-3sc3ncnc(Nc4ccc(OCc5cccc(F)c5)c(Cl)c4)c23)CC1 [Example 245, N-{3-chloro-4-[(3-fluorobenzyl)oxy]phenyl}-2-[(1-isopropylpiperidin-4-yl)methyl]-4,5-dihydro-2H-pyrimido[5′,4′:4,5]thieno[2,3-e]indazol-6-amine] | ≥ 5.30 | ≥ 6.00
COCCN1CCN(C(=O)Cn2cc3c(n2)CCc2c-3sc3ncnc(Nc4ccc(OCc5cccc(F)c5)c(Cl)c4)c23)CC1 [Example 186, N-{3-chloro-4-[(3-fluorobenzyl)oxy]phenyl}-2-{2-[4-(2-methoxyethyl)piperazin-1-yl]-2-oxoethyl}-4,5-dihydro-2H-pyrimido[5′,4′:4,5]thieno[2,3-e]indazol-6-amine] | ≥ 5.30 | ≥ 6.00
CN1CCN(CCn2cc3c(n2)CCc2c-3sc3ncnc(Nc4ccc(F)c(Cl)c4)c23)CC1 [Example 8, N-(3-chloro-4-fluorophenyl)-2-[2-(4-methylpiperazin-1-yl)ethyl]-4,5-dihydro-2H-pyrimido[5′,4′:4,5]thieno[2,3-e]indazol-6-amine] | ≥ 5.30 | ≥ 6.00
COCCn1cc2c(n1)CCc1c-2sc2ncnc(Nc3ccc(OCc4cccc(F)c4)c(Cl)c3)c12 [Example 312, N-{3-chloro-4-[(3-fluorobenzyl)oxy]phenyl}-2-(2-methoxyethyl)-4,5-dihydro-2H-pyrimido[5′,4′:4,5]thieno[2,3-e]indazol-6-amine] | ≥ 4.30 | ≥ 5.30
CN1CCN(CCn2ncc3c2CCc2c-3sc3ncnc(Nc4ccc5c(cnn5Cc5cccc(F)c5)c4)c23)CC1 [Example 295, 3-[2-(4-methylpiperazin-1-yl)ethyl]-N-[1-(3-fluorobenzyl)-1H-indazol-5-yl]-4,5-dihydro-3H-pyrimido[5′,4′:4,5]thieno[2,3-e]indazol-6-amine] | ≥ 5.30 | ≥ 6.00
NC[C@@H](O)Cn1ncc2c1CCc1c-2sc2ncnc(Nc3ccc(OCc4cccc(F)c4)c(Cl)c3)c12 [Example 162, (2R)-1-amino-3-[6-({3-chloro-4-[(3-fluorobenzyl)oxy]phenyl}amino)-4,5-dihydro-3H-pyrimido[5′,4′:4,5]thieno[2,3-e]indazol-3-yl]propan-2-ol trifluoroacetate (salt)] | ≥ 4.30 | ≥ 5.30
CN1CCN(CC(=O)N2CCC(n3cc4c(n3)CCc3c-4sc4ncnc(Nc5ccc(OCc6cccc(F)c6)c(Cl)c5)c34)CC2)CC1 [Example 224, N-{3-chloro-4-[(3-fluorobenzyl)oxy]phenyl}-2-{1-[(4-methylpiperazin-1-yl)acetyl]piperidin-4-yl}-4,5-dihydro-2H-pyrimido[5′,4′:4,5]thieno[2,3-e]indazol-6-amine] | ≥ 5.30 | ≥ 6.00
Fc1cccc(COc2ccc(Nc3ncnc4sc5c(c34)CCc3nn(C4CCNCC4)cc3-5)cc2Cl)c1 [Example 217, N-{3-chloro-4-[(3-fluorobenzyl)oxy]phenyl}-2-piperidin-4-yl-4,5-dihydro-2H-pyrimido[5′,4′:4,5]thieno[2,3-e]indazol-6-amine] | ≥ 5.30 | ≥ 6.00
Cc1cccc(COc2ccc(Nc3ncnc4sc5c(c34)CCc3nn(CCOS(C)(=O)=O)cc3-5)cc2Cl)n1 [Example 116, 2-[6-({3-chloro-4-[(6-methylpyridin-2-yl)methoxy]phenyl}amino)-4,5-dihydro-2H-pyrimido[5′,4′:4,5]thieno[2,3-e]indazol-2-yl]ethyl methanesulfonate] | ≥ 4.30 | ≥ 5.30
CCN1CCN(CCn2cc3c(n2)CCc2c-3sc3ncnc(Nc4ccc5c(cnn5Cc5ccccc5)c4)c23)CC1 [Example 305, N-(1-benzyl-1H-indazol-5-yl)-2-[2 (4-ethylpiperazin-1-yl)ethyl]-4,5-dihydro-2H-pyrimido[5′,4′:4,5]thieno[2,3-e]indazol-6-amine] | ≥ 5.30 | ≥ 6.00
COCCN(CCOC)C[C@@H](O)Cn1cc2c(n1)CCc1c-2sc2ncnc(Nc3ccc(OCc4cccc(F)c4)c(Cl)c3)c12 [Example 138, (2R)-1-[bis(2-methoxyethyl)amino]-3-[6-({3-chloro-4-[(3-fluorobenzyl)oxy]phenyl}amino)-4,5-dihydro-2H-pyrimido[5′,4′:4,5]thieno[2,3-e]indazol-2-yl]propan-2-ol] | ≥ 4.30 | ≥ 6.00
CCOC(=O)Cn1cc2c(n1)CCc1c-2sc2ncnc(Nc3ccc(OCc4cccc(F)c4)c(Cl)c3)c12 [Example 174] | ≥ 4.30 | ≥ 6.00
CCN1CCC(n2cc3c(n2)CCc2c-3sc3ncnc(Nc4ccc(OCc5cccc(F)c5)c(Cl)c4)c23)CC1 [Example 230, N-{3-chloro-4-[(3-fluorobenzyl)oxy]phenyl}-2-(1-ethylpiperidin-4-yl)-4,5-dihydro-2H-pyrimido[5′,4′:4,5]thieno[2,3-e]indazol-6-amine] | ≥ 5.30 | ≥ 6.00
Fc1cccc(Cn2ncc3cc(Nc4ncnc5sc6c(c45)CCc4c-6cnn4CCn4ccnc4)ccc32)c1 [Example 291, N-[1-(3-fluorobenzyl)-1H-indazol-5-yl]-3-[2-(1H-imidazol-1-yl)ethyl]-4,5-dihydro-3H-pyrimido[5′,4′:4,5]thieno[2,3-e]indazol-6-amine] | ≥ 5.30 | ≥ 6.00
CN(C)[C@H]1CCN(CCn2ncc3c2CCc2c-3sc3ncnc(Nc4ccc(F)c(Cl)c4)c23)C1 [Example 95, N-(3-chloro-4-fluorophenyl)-3-{2-[3-(dimethylamino)pyrrolidin-1-yl]ethyl}-4,5-dihydro-3H-pyrimido[5′,4′:4,5]thieno[2,3-e]indazol-6-amine] | ≥ 5.30 | ≥ 6.00
CCN(CC)CC(=O)N1CCC(Cn2cc3c(n2)CCc2c-3sc3ncnc(Nc4ccc(OCc5cccc(F)c5)c(Cl)c4)c23)CC1 [Example 242, N-{3-chloro-4-[(3-fluorobenzyl)oxy]phenyl}-2-({1-[(diethylamino)acetyl]piperidin-4-yl}methyl)-4,5-dihydro-2H-pyrimido[5′,4′:4,5]thieno[2,3-e]indazol-6-amine trifluoroacetate] | ≥ 5.30 | ≥ 6.00
Fc1cccc(COc2ccc(Nc3ncnc4sc5c(c34)CCc3nn(CCN4CCNCC4)cc3-5)cc2Cl)c1 [Example 176, N-{3-chloro-4-[(3-fluorobenzyl)oxy]phenyl}-2-(2-piperazin-1-ylethyl)-4,5-dihydro-2H-pyrimido[5′,4′:4,5]thieno[2,3-e]indazol-6-amine] | ≥ 5.30 | ≥ 6.00
Cc1cc(Nc2ncnc3sc4c(c23)CCc2c-4cnn2CCN2CCN(C)CC2)ccc1O [Example 316, 2-methyl-4-({3-[2-(4-methylpiperazin-1-yl)ethyl]-4,5-dihydro-3H-pyrimido[5′,4′:4,5]thieno[2,3-e]indazol-6-yl}amino)phenol] | ≥ 4.30 | ≥ 4.30
Fc1cccc(COc2ccc(Nc3ncnc4sc5c(c34)CCc3c-5cnn3CCCN3CCOCC3)cc2Cl)c1 [Example 271, N-{3-chloro-4-[(3-fluorobenzyl)oxy]phenyl}-3-(3-morpholin-4-ylpropyl)-4,5-dihydro-3H-pyrimido[5′,4′:4,5]thieno[2,3-e]indazol-6-amine] | ≥ 4.30 | ≥ 6.00
Fc1ccc(Nc2ncnc3sc4c(c23)CCc2nn(CCN3CCOCC3)cc2-4)cc1Cl [Example 5, N-(3-chloro-4-fluorophenyl)-2-(2-morpholin-4-ylethyl)-4,5-dihydro-2H-pyrimido[5′,4′:4,5]thieno[2,3-e]indazol-6-amine] | ≥ 5.30 | ≥ 5.30
CCN(CC)C[C@@H](O)Cn1cc2c(n1)CCc1c-2sc2ncnc(Nc3ccc(OCc4cccc(F)c4)c(Cl)c3)c12 [Example 158, (2R)-1-[6-({3-chloro-4-[(3-fluorobenzyl)oxy]phenyl}amino)-4,5-dihydro-2H-pyrimido[5′,4′:4,5]thieno[2,3-e]indazol-2-yl]-3-(diethylamino)propan-2-ol trifluoroacetate (salt)] | ≥ 4.30 | ≥ 5.30
Fc1ccc(Nc2ncnc3sc4c(c23)CCc2n[nH]cc2-4)cc1Cl [Example 40, N-(3-chloro-4-fluorophenyl)-4,5-dihydro-2H-pyrimido[5′,4′:4,5]thieno[2,3-e]indazol-6-amine] | ≥ 5.30 | ≥ 5.30
CS(=O)(=O)CCNCCn1ncc2c1CCc1c-2sc2ncnc(Nc3ccc(F)c(Cl)c3)c12 [Example 92, N-(3-chloro-4-fluorophenyl)-3-(2-{[2-(methylsulfonyl)ethyl]amino}ethyl)-4,5-dihydro-3H-pyrimido[5′,4′:4,5]thieno[2,3-e]indazol-6-amine] | ≥ 5.30 | ≥ 5.30
CC(C)(C)[Si](C)(C)OCCn1cc2c(n1)CCc1c-2sc2ncnc(Nc3ccc(OCc4cccc(F)c4)c(Cl)c3)c12 [Example 55, 2-(2-{[tert-butyl(dimethyl)silyl]oxy}ethyl)N-{3-chloro-4-[(3-fluorobenzyl)oxy]phenyl}-4,5-dihydro-2H-pyrimido[5′,4′:4,5]thieno[2,3-e]indazol-6-amine] | ≥ 4.30 | ≥ 5.30
CS(=O)(=O)OCCn1cc2c(n1)CCc1c-2sc2ncnc(Nc3ccc(OCc4cccc(F)c4)c(Cl)c3)c12 [Example 57, 2-[6-({3-chloro-4-[(3-fluorobenzyl)oxy]phenyl}amino)-4,5-dihydro-2H-pyrimido[5′,4′:4,5]thieno[2,3-e]indazol-2-yl]ethyl methanesulfonate] | ≥ 5.30 | ≥ 6.00
